Laboratory results taken from paper PMC13266984 (Journal of medicinal chemistry, 2026).

Assays:
OE19 (3A1) = target: T1, OE19 (3A1) (Homo sapiens, UniProt P30838); assay: Cellular ALDEFLUOR assay in OE19 cells (preferential ALDH3A1 expression); settings: for Cell_Efficacy: Table S5, OE19 cells; for Cell_CC-v2: Table S5, cellular curve class
T1 sequence (P30838 1-453): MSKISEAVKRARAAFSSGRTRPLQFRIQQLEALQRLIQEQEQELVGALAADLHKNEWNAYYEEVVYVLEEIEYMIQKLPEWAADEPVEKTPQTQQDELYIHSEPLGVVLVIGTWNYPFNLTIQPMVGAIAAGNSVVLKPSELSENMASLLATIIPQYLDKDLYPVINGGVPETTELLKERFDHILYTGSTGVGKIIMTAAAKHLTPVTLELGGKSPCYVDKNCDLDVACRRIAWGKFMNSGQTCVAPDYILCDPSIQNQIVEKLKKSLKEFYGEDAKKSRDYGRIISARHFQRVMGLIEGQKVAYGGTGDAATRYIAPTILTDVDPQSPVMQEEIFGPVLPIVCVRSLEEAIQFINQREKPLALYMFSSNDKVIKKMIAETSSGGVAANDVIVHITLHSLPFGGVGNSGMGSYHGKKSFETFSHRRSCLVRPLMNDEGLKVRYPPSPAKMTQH

Human ALDH3A1 = target: T2, Human ALDH3A1 (Homo sapiens, UniProt P30838); assay: ALDH3A1 biochemical assay (benzaldehyde/NADP+, diaphorase-resazurin readout, 1,536-well); settings: for Efficacy: Table S5, biochemical; for CC-v2: Table S5, biochemical curve class
T2 sequence (P30838 1-453): T1 sequence (P30838 1-453)

Compound	AC50 (OE19 (3A1)) [nM]	Cell_Efficacy (OE19 (3A1))	Cell_CC-v2 (OE19 (3A1))	AC50 (Human ALDH3A1) [nM]	Efficacy (Human ALDH3A1)	CC-v2 (Human ALDH3A1)
O=C(NCc1ccc2c(c1)C(=O)NCC2)c1csc(N2CCN(c3cccc(C(F)(F)F)c3)CC2)n1 [NCGC01397286-01]	398	-10.99	5	447	-60.58	-1.2
O=C(NCc1ccc(-c2ccncc2)nc1)c1csc(N2CCN(c3cccc(C(F)(F)F)c3)CC2)n1 [NCGC01397294-01]	8460	-106.03	-1.3	78.2	-73.44	-1.2
O=C(NCc1cccc([S+](=O)([O-])C(F)(F)F)c1)c1csc(N2CCN(c3cccc(C(F)(F)F)c3)CC2)n1 [NCGC01397299-01]	79.4	-61.99	-1.2	447	-37.47	-1.2
O=C(NCc1ccc(-c2ccsc2)cc1)c1csc(N2CCN(c3cccc(C(F)(F)F)c3)CC2)n1 [NCGC01397331-01]	3050	-82.49	-1.3	4	-97.11	-1.1
O=C(NC1CC1)c1ccc(CNC(=O)c2csc(N3CCN(c4cccc(C(F)(F)F)c4)CC3)n2)cc1 [NCGC01397384-01]	–	-16.71	4	1580	-41.09	-1.2
O=C(NCc1cccc(N2CCCC2=O)c1)c1csc(N2CCN(c3cccc(C(F)(F)F)c3)CC2)n1 [NCGC01397385-01]	17800	23.55	5	708	-71.46	-1.2
O=C(Nc1ccc(CNC(=O)c2csc(N3CCN(c4cccc(C(F)(F)F)c4)CC3)n2)cc1)c1ccncc1 [NCGC01397389-01]	7080	-125.53	-2.1	–	-20.50	4
O=C(Nc1ccc(F)cc1)c1ccc(CNC(=O)c2csc(N3CCN(c4cccc(C(F)(F)F)c4)CC3)n2)cc1 [NCGC01407706-01]	–	0.00	4	89.2	-65.00	-1.2
O=C(NCc1ccccc1-c1ccc(Cl)cc1Cl)c1csc(N2CCN(c3cccc(C(F)(F)F)c3)CC2)n1 [NCGC01407762-01]	11200	-62.69	-1.4	–	0.00	4
Cc1cc(CNC(=O)c2csc(N3CCN(c4cccc(C(F)(F)F)c4)CC3)n2)ccc1-c1ccccc1 [NCGC01407768-01]	15800	-93.67	-1.3	316	-32.49	-1.2
O=C(NCc1ccc(SC(F)(F)F)cc1)c1csc(N2CCN(c3cccc(C(F)(F)F)c3)CC2)n1 [NCGC01407771-01]	3050	-89.96	-1.2	25.1	-94.50	-1.1
O=C(NCc1ccc(N2CCNC2=O)cc1)c1csc(N2CCN(c3cccc(C(F)(F)F)c3)CC2)n1 [NCGC01407779-01]	2240	-130.58	-1.1	794	-73.90	-1.2
O=C(COc1cccc(CNC(=O)c2csc(N3CCN(c4cccc(C(F)(F)F)c4)CC3)n2)c1)NC1CC1 [NCGC01407783-01]	31.6	-92.90	-1.3	398	-80.39	-1.1
O=C(NCc1ccc(C#CC2CC2)cc1)c1csc(N2CCN(c3cccc(C(F)(F)F)c3)CC2)n1 [NCGC01407809-01]	9650	-60.41	-1.4	14.1	-101.87	-1.1
Cc1cccc(COc2ccc(CNC(=O)c3csc(N4CCN(c5cccc(C(F)(F)F)c5)CC4)n3)cc2)c1 [NCGC01407816-01]	20000	-99.22	-1.1	200	-21.51	5

Other lines, results leading:

AC50 (OE19 (3A1)) [nM]	Cell_Efficacy (OE19 (3A1))	Cell_CC-v2 (OE19 (3A1))	AC50 (Human ALDH3A1) [nM]	Efficacy (Human ALDH3A1)	CC-v2 (Human ALDH3A1)	Compound
1360	-77.80	-1.4	11.2	-96.06	-1.1	O=C(NCc1ccc(Br)c(C(F)(F)F)c1)c1csc(N2CCN(c3cccc(C(F)(F)F)c3)CC2)n1 [NCGC01396480-01]
342	-73.69	-1.4	39.8	-98.89	-1.1	O=C(NCc1ccc2c(c1)COC2=O)c1csc(N2CCN(c3cccc(C(F)(F)F)c3)CC2)n1 [NCGC01396481-01]
–	0.00	4	15.9	-100.89	-1.1	COc1cc(CNC(=O)c2csc(N3CCN(c4cccc(C(F)(F)F)c4)CC3)n2)ccc1F [NCGC01396486-01]
342	-79.11	-1.3	25.1	-100.97	-1.1	CC(=O)c1cccc(CNC(=O)c2csc(N3CCN(c4cccc(C(F)(F)F)c4)CC3)n2)c1 [NCGC01397289-01]
–	0.00	5	398	-53.79	-1.2	O=C(NCc1ccc2c(c1)CNC2=O)c1csc(N2CCN(c3cccc(C(F)(F)F)c3)CC2)n1 [NCGC01397290-02]
683	-111.50	-2.1	20	-100.00	-1.1	CC(=O)c1ccc(CNC(=O)c2csc(N3CCN(c4cccc(C(F)(F)F)c4)CC3)n2)cc1 [NCGC01397292-01]
766	-101.81	-1.1	5.6	-100.05	-1.1	N#Cc1ccc(CNC(=O)c2csc(N3CCN(c4cccc(C(F)(F)F)c4)CC3)n2)cc1F [NCGC01397293-01]
2160	-85.43	-1.1	3.6	-107.41	-1.1	O=C(NCc1cc(F)cc(Br)c1)c1csc(N2CCN(c3cccc(C(F)(F)F)c3)CC2)n1 [NCGC01397297-01]
1920	-76.04	-1.1	25.1	-96.99	-1.1	CC1(C)Oc2ccc(CNC(=O)c3csc(N4CCN(c5cccc(C(F)(F)F)c5)CC4)n3)cc2O1 [NCGC01397390-01]
965	-104.84	-2.2	2.2	-100.26	-1.1	N#Cc1cccc(CNC(=O)c2csc(N3CCN(c4cccc(C(F)(F)F)c4)CC3)n2)c1 [NCGC01397393-01]
–	0.00	5	398	-29.26	-1.4	Cc1cc(CNC(=O)c2csc(N3CCN(c4cccc(C(F)(F)F)c4)CC3)n2)cc(C)c1Br [NCGC01407759-01]
282	-76.28	-1.2	447	-37.12	-1.2	CC(C)(C)c1cccc(CNC(=O)c2csc(N3CCN(c4cccc(C(F)(F)F)c4)CC3)n2)c1 [NCGC01407765-01]
644	-100.81	-1.1	59.6	-88.60	-1.1	Cc1ccc(CNC(=O)c2csc(N3CCN(c4cccc(C(F)(F)F)c4)CC3)n2)cc1C(F)(F)F [NCGC01407772-01]
–	0.00	4	–	-7.18	4	CC(C)(C)c1cc(CNC(=O)c2csc(N3CCN(c4cccc(C(F)(F)F)c4)CC3)n2)cc(C(C)(C)C)c1 [NCGC01407780-01]
40.7	-74.47	-1.2	18.8	-99.55	-1.1	O=C(NCc1ccc2c(c1)CCC2)c1csc(N2CCN(c3cccc(C(F)(F)F)c3)CC2)n1 [NCGC01407784-01]
965	-69.34	-1.4	2.8	-102.00	-1.1	O=C(NCc1ccc2cc(Cl)ccc2c1)c1csc(N2CCN(c3cccc(C(F)(F)F)c3)CC2)n1 [NCGC01407805-01]
31.6	-111.10	-1.1	8910	-57.06	-1.2	C[S+](=N)([O-])c1cccc(CNC(=O)c2csc(N3CCN(c4cccc(C(F)(F)F)c4)CC3)n2)c1 (stereo not drawn) [NCGC01407817-01]
